Measured values taken from patent US20180140612A1, “TOPICAL OPHTHALMIC FORMULATIONS FOR THE TREATMENT AND PREVENTION OF MIGRAINE HEADACHE” (Ora, Inc., priority 2013, published 2018).
Structures can show the parent of a compound that is named as a salt.

Columns and labels:
[1] = instillation of ophthalmic drops in the eye of subjects with migraine; type: in vivo, human; details: two subjects with occasional migraine
Description: Data from two subjects with occasional migraine has shown that one drop of ketotifen 0.025% in the eye was successful in providing relief within 2 hours post treatment
Data from two subjects with occasional migraine has shown that one drop of ketotifen 0.05% in the eye was successful in providing relief within 2 hours post treatment

[2] = migraineurs versus control subjects; cited from earlier work
[3] = cited from earlier work
[4] = topical 0.5% ophthalmic solution, twice daily dosing for 8 days, cited from earlier work
[5] = first month of treatment; prescription-event data; cited from earlier work

In the case of `CN1CCC(=C2c3ccccc3CC(=O)c3sccc32)CC1` [ketotifen], the “time to relief post treatment” value ([1]; one drop of ketotifen 0.025% in the eye) is reported as at most 2 h and the “time to relief post treatment” value ([1]; one drop of ketotifen 0.05% in the eye) is reported as at most 2 h.

In the case of `NCCc1c[nH]cn1` [histamine], the “induction of migraine headache” value [2] is given as “induced migraine headache more often in migraineurs than in control subjects”.

In the case of `CC(C)NCC(O)COc1ccc(CCOCC2CC2)cc1` (centres unmarked) [betaxolol], the migraine related complaints ([3]; case control study, group of subjects receiving the topical beta-blocker) is given as “showed improvement in their migraine related complaints”.

For `CC(C)(C)NC[C@H](O)COc1nsnc1N1CCOCC1` [timolol maleate], the “time of peak plasma concentration following first dose” value [4] is given as at most 4 h, the peak plasma concentration ([4]; following first dose) is given as 0.5 ng/mL and the “further attacks of migraine” value ([3]; case report, person with history of common migraine, topical timolol maleate 0.5% for bilateral ocular hypertension) is given as “did not experience any further attacks of migraine”.

For `O=C(O)COCCN1CCN([C@H](c2ccccc2)c2ccc(Cl)cc2)CC1` [levocetirizine], the “association of headache/migraines with treatment” value [5] is listed as “positively associated”.
